Source: ChEMBL document CHEMBL3046637, “Synthesis of new series of pyrazolo[4,3-d]pyrimidin-7-ones and pyrido[2,3-d]pyrimidin-4-ones for their bacterial and cyclin-dependent kinases (CDKs) inhibitory activities” (Med Chem Res, 2011)
In brackets after ≈: the same amount, converted by molar mass.

How the values were obtained:
[1] = molecular target: Glycogen synthase kinase-3 alpha (Homo sapiens, UniProt P49840); assay: Inhibition of GSK3alpha (unknown origin) using GS-l peptide as substrate and [gamma-33P]-ATP after 10 min
Sequence of Glycogen synthase kinase-3 alpha (P49840 whole entry): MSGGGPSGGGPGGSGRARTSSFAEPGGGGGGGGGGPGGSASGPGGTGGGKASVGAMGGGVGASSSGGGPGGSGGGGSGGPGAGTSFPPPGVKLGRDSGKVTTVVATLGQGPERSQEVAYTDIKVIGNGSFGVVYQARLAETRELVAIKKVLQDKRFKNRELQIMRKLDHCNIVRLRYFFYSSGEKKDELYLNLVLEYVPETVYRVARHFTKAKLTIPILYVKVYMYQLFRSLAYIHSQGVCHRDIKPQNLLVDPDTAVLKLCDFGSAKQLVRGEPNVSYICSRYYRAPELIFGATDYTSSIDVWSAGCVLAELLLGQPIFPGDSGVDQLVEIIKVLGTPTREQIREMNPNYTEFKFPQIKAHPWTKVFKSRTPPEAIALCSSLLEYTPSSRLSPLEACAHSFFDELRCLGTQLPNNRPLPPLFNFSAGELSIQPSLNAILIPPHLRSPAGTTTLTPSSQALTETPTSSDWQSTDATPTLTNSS

[2] = molecular target: Glycogen synthase kinase-3 beta (Homo sapiens, UniProt P49841); assay: Inhibition of GSK3beta (unknown origin) using GS-l peptide as substrate and [gamma-33P]-ATP after 10 min
Sequence of Glycogen synthase kinase-3 beta (P49841 whole entry): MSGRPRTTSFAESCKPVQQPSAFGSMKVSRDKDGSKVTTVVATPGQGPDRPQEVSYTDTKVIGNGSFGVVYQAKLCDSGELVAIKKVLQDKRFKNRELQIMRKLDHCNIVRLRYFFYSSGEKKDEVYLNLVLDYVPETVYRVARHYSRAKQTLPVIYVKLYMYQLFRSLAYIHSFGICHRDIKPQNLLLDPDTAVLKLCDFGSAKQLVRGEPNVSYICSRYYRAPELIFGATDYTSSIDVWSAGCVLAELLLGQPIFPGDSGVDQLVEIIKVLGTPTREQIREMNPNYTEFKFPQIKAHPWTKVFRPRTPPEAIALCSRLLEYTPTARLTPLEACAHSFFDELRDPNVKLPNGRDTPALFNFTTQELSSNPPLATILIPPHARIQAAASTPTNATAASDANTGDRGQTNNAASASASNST

[3] = molecular target: Dual specificity tyrosine-phosphorylation-regulated kinase 1A (Homo sapiens, UniProt Q13627); assay: Inhibition of DYRK1A (unknown origin) using [gamma-33P]-ATP after 10 min
[4] = molecular target: Cyclin-dependent kinase 5/CDK5 activator 1 (Homo sapiens, UniProt Q00535); assay: Inhibition of CDK5/p25 (unknown origin) using histone H1 as substrate and [gamma-33P]-ATP after 10 min; assay type: protein-complex assay
Sequence of Cyclin-dependent kinase 5/CDK5 activator 1 (Q00535 whole entry): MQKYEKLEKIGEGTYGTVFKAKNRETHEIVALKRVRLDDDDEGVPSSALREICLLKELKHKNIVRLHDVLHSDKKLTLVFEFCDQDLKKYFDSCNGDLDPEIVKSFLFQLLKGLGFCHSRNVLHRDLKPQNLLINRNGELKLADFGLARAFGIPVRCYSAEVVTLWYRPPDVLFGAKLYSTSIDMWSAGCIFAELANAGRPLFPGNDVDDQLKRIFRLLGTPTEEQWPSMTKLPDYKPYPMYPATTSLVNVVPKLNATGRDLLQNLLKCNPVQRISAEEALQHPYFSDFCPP
Sequence of Cyclin-dependent kinase 5/CDK5 activator 1 (Q15078 whole entry, further chain): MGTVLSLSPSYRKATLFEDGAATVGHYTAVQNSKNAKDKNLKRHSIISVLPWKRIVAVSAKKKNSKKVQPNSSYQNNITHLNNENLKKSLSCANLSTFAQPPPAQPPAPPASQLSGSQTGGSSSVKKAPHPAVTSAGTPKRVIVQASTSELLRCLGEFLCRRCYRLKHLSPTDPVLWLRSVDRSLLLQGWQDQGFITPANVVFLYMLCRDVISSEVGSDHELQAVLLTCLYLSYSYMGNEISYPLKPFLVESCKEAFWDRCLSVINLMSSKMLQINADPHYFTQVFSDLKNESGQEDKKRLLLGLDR

[5] = molecular target: T1, Cyclin-dependent kinase 1/cyclin B1 (Homo sapiens, UniProt P06493); assay: Inhibition of CDK1/cyclin B (unknown origin) using histone H1 as substrate and [gamma-33P]-ATP after 10 min; assay type: protein-complex assay
T1 sequence (P06493 whole entry, the tested form may be a part): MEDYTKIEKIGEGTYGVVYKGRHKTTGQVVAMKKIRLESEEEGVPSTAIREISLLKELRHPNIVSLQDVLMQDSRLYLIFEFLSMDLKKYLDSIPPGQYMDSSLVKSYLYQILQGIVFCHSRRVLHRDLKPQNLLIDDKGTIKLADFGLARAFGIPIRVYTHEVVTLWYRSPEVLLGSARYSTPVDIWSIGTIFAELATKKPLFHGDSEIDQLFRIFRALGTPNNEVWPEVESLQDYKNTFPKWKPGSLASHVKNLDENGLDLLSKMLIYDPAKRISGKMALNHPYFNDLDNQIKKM
T1 sequence (P14635 whole entry, further chain, the tested form may be a part): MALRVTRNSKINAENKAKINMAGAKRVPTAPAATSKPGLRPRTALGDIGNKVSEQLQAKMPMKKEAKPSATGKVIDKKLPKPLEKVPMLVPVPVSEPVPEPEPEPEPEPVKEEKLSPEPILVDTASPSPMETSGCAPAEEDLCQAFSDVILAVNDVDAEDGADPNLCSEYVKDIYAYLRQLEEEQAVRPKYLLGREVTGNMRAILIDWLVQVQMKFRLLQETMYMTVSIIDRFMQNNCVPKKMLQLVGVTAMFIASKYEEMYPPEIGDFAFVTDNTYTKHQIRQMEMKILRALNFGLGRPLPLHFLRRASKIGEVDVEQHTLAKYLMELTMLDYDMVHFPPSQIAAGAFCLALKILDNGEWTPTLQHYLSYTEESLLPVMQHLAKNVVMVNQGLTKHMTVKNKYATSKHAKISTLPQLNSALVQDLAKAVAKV

Escherichia coli [6] = assay: Antimicrobial activity against Escherichia coli NCTC 10418 by agar cup diffusion technique; assay type: functional
Pseudomonas aeruginosa [7] = assay: Antimicrobial activity against Pseudomonas aeruginosa ATCC 9027 by agar cup diffusion technique; assay type: functional
Candida albicans [8] = assay: Antimicrobial activity against Candida albicans ATCC 10231 by agar cup diffusion technique; assay type: functional
Candida albicans [9] = assay: Antimicrobial activity against Candida albicans ATCC 10231 by two-fold serial dilution technique; assay type: functional
Staphylococcus aureus [10] = assay: Antimicrobial activity against Staphylococcus aureus ATCC 6538 by agar cup diffusion technique; assay type: functional
Staphylococcus aureus [11] = assay: Antimicrobial activity against Staphylococcus aureus ATCC 6538 by two-fold serial dilution technique; assay type: functional
Pseudomonas aeruginosa [12] = assay: Antimicrobial activity against Pseudomonas aeruginosa ATCC 9027 by two-fold serial dilution technique; assay type: functional
[13] = molecular target: T1, Cyclin-dependent kinase 1/cyclin B1; assay: Inhibition of CDK1/cyclin B (unknown origin); assay type: protein-complex assay
Escherichia coli [14] = assay: Antimicrobial activity against Escherichia coli NCTC 10418 by two-fold serial dilution technique; assay type: functional

Row | Compound | IC50 [1] | IC50 [2] | IC50 [3] | IC50 [4] | IC50 [5] | diameter of the inhibition zone (DIZ) (Escherichia coli [6]) | diameter of the inhibition zone (DIZ) (Pseudomonas aeruginosa [7]) | diameter of the inhibition zone (DIZ) (Candida albicans [8]) | MBC (Candida albicans [9]) | MIC (Candida albicans [9]) | diameter of the inhibition zone (DIZ) (Staphylococcus aureus [10]) | MBC (Staphylococcus aureus [11]) | MIC (Staphylococcus aureus [11]) | MBC (Pseudomonas aeruginosa [12]) | MIC (Pseudomonas aeruginosa [12]) | IC50 [13] | MBC (Escherichia coli [14])
1 | O=c1[nH]cnc2c(-c3ccc(Br)cc3)n[nH]c12 | > 10 µM | > 10 µM | > 10 µM | > 10 µM | > 10 µM | 15.5 mm | 17.5 mm | 28 mm | 250 µg/mL (≈ 859 µM) | 250 µg/mL (≈ 859 µM) |  |  |  |  |  |  | 
2 | CCOc1ccc(S(=O)(=O)N2CCOCC2)cc1-c1nc2ncccc2c(=O)[nH]1 | > 10 µM | > 10 µM | > 10 µM | > 10 µM | > 10 µM | 17 mm | 15 mm | 17 mm |  |  | 10 mm |  |  |  |  |  | 
3 | CCOc1ccc(S(=O)(=O)N2CCN(c3ccccc3)CC2)cc1-c1nc2ncccc2c(=O)[nH]1 | > 10 µM | > 10 µM | > 10 µM | > 10 µM | > 10 µM | 16.5 mm | 15.5 mm | 25 mm | 250 µg/mL (≈ 509 µM) | 62.5 µg/mL (≈ 127 µM) | 12 mm |  |  |  |  |  | 
4 | CCOC(=O)C(=O)/C(=N\Nc1ccccc1)C(=O)c1ccccc1 | > 10 µM | > 10 µM | > 10 µM | > 10 µM | > 10 µM | 16 mm | 16 mm | 16 mm |  |  |  |  |  |  |  |  | 
5 | CCOC(=O)C(=O)/C(=N\Nc1ccccc1)C(=O)c1ccc(Cl)cc1 | > 10 µM | > 10 µM | > 10 µM | > 10 µM | > 10 µM | 16 mm | 17 mm | 16 mm |  |  |  |  |  |  |  |  | 
6 | O=C1NN=C(c2ccccc2)/C(=N/Nc2ccccc2)C1=O | > 10 µM | > 10 µM | > 10 µM | > 10 µM | > 10 µM | 17 mm | 24 mm | 17.5 mm |  |  | 30 mm | 62.5 µg/mL (≈ 214 µM) | 62.5 µg/mL (≈ 214 µM) | 125 µg/mL (≈ 428 µM) | 125 µg/mL (≈ 428 µM) |  | 
7 | O=C1NN=C(c2ccc(Br)cc2)/C(=N/Nc2ccccc2)C1=O | > 10 µM | > 10 µM | > 10 µM | > 10 µM | > 10 µM | 16 mm | 17.5 mm | 16.5 mm |  |  | 20 mm | 250 µg/mL (≈ 674 µM) | 250 µg/mL (≈ 674 µM) |  |  |  | 
8 | CCOC(=O)c1[nH]nc(-c2ccc(F)cc2)c1/N=N/c1ccccc1 | > 10 µM | > 10 µM | > 10 µM | > 10 µM | > 10 µM | 16 mm | 17 mm | 16 mm |  |  | 20 mm | 250 µg/mL (≈ 739 µM) | 250 µg/mL (≈ 739 µM) |  |  |  | 
9 | CCOC(=O)c1[nH]nc(-c2ccc(Cl)cc2)c1/N=N/c1ccccc1 | > 10 µM | > 10 µM | > 10 µM | > 10 µM | > 10 µM | 16.5 mm | 16 mm | 16 mm |  |  | 21 mm | 250 µg/mL (≈ 705 µM) | 125 µg/mL (≈ 352 µM) |  |  |  | 
10 | CCOC(=O)c1[nH]nc(-c2ccc(Cl)cc2)c1N | > 10 µM | > 10 µM | > 10 µM | > 10 µM | > 10 µM | 17 mm | 23 mm | 17 mm |  |  | 10 mm |  |  | > 500 µg/mL | 125 µg/mL (≈ 470 µM) |  | 
11 | CCOC(=O)c1[nH]nc(-c2ccc(Br)cc2)c1N | > 10 µM | > 10 µM | > 10 µM | > 10 µM | > 10 µM | 15.5 mm | 17 mm | 16 mm |  |  | 14 mm |  |  |  |  |  | 
12 | O=c1[nH]cnc2c(-c3ccccc3)n[nH]c12 | > 10 µM | > 10 µM | > 10 µM | > 10 µM | > 10 µM | 16 mm | 17.5 mm | 17 mm |  |  | 11 mm |  |  |  |  |  | 
13 | COc1ccc(CNc2ncnc3c(C(C)C)n[nH]c23)cc1O |  |  |  |  |  |  |  |  |  |  |  |  |  |  |  | 1.1 µM | 
14 | CC1(C)S[C@@H]2[C@H](NC(=O)[C@H](N)c3ccccc3)C(=O)N2[C@H]1C(=O)O [AMPICILLIN] |  |  |  |  |  | 26 mm | 18 mm |  |  |  | 40 mm | 15.6 µg/mL (≈ 44.7 µM) | 3.9 µg/mL (≈ 11.2 µM) | 500 µg/mL (≈ 1430 µM) | 250 µg/mL (≈ 715 µM) |  | 31.2 µg/mL (≈ 89.4 µM)
15 | Clc1ccccc1C(c1ccccc1)(c1ccccc1)n1ccnc1 [CLOTRIMAZOLE] |  |  |  |  |  |  |  | 28 mm | 15.6 µg/mL (≈ 45.3 µM) | 7.81 µg/mL (≈ 22.6 µM) |  |  |  |  |  |  | 
